# Laboratory results published in patent US20230000876A1, “TREATING CANCERS WITH A CYCLIN-DEPENDENT KINASE INHIBITOR” (Nuvation Bio Inc., priority 2021, published 2023).
# What was measured:
# U-118MG xenograft tumors = test: U-118MG glioma subcutaneous xenograft model; assay type: in vivo, female CB17 SCID mice; settings: for T/C / TGI / Tumor Size: PG-D27
# Protocol: The tumor cells were routinely subcultured twice weekly. The cells growing in an exponential growth phase were harvested and counted for tumor inoculation.
# The treatments was started on day 7 after tumor inoculation when the average tumor volume reached 150 mm^3. 60 mice were selected and assigned into 6 groups. The testing articles were administrated to the mice according to Table 1.
# Tumor size was measured twice weekly in two dimensions using a caliper, and the volume was expressed in mm^3 using the formula: V=0.5 a×b^2 where a and b are the long and short diameters of the tumor, respectively. The tumor sizes are then used for the calculation of T/C and TGI values.
# The T/C value (in percent) is an indication of antitumor effectiveness; T and C are the mean volume of the treated and control groups, respectively, on a given day.
# TGI was calculated for each group using the formula: TGI (%)=[1−(Ti−T0)/(Vi−V0)]×100; Ti is the average tumor volume of a treatment group on PG-D28 T0 is the average tumor volume of the treatment group on the day of treatment start, Vi is the average tumor volume of the vehicle control group on the same day with Ti, and V0 is the average tumor volume of the vehicle group on the day of treatment start.
# All Groups were taken down on PG-D28, tumor, plasma and brain samples were collected.
# For statistical analysis for difference among groups 2-6 and group 1, a one-way ANOVA was performed. All the analysis were conducted using GraphPad Prism software. p<0.05 was considered to be statistically significant.
# A375 = test: Cell viability assay, melanoma cell line A375; assay type: cell-based
# Protocol: 4.4.4 Compound Plate (10×) Preparation and Compound Treatment • 10× concentrate compound plate preparation: Add 198 μL of assay medium into each well of the V-bottom plate; then transfer 2 μL of the stock compound solution of each concentration from the stock plate. Add 2 μL of DMSO into the Blank and Control wells. Pipette up and down to mix well. This V-plate is designated as the 10× concentrate compound plate. • For day 0 plate, add 15 μL of the DMSO-medium into the Control wells. The final DMSO concentration was 0.1%. Then directly proceed to cell viability assay. • For assay plate, add 15 μL of the compound-medium of each well from the 10× concentrate compound plate into the cells in 96-well assay plate according to the plate map. Add 15 μL of the DMSO-medium into the Blank and Control wells. The final DMSO concentration was 0.1%. • Return the assay plate into incubator and incubate for 6 days.
# The procedures were performed according to the Promega CellTiter-Glo Luminescent Cell Viability Assay Kit manual (Promega-G7573). • The CellTiter-Glo buffer was thawed and equilibrated to room temperature prior to use. • CellTiter-Glo Substrate was equilibrated to room temperature prior to use. • The entire liquid volume of CellTiter-Glo Buffer was transferred into the amber bottle containing CellTiter-Glo Substrate to reconstitute the lyophilized enzyme/substrate mixture. […] Plates were covered with aluminum foil to protect from light. • The contents were mixed for 2 minutes on an orbital shaker to induce cell lysis. • The plate was incubated at room temperature for 20 minutes to stabilize luminescent signal. • Record luminescence on the 2104 EnVision plate reader.
# Inhibition rate (IR) of the tested compounds was determined by the following formula: IR (%)=(1−(RLU compound−RLU day0)/(RLU control−RLU day0))*100%. The inhibitions of different dose of compound were calculated in Excel file, and then were used to plot inhibition curves and evaluate related parameters, such as Min (%), Max (%) and GI50. […]
# [1] = tested on: tumor fragments from a mCRPC patient; test: Enzalutamide-resistant patient-derived xenograft prostate model (ST2347 PDX); assay type: in vivo, male Balb/c nude mice
# VCap prostate cancer = test: Non-castrated VCap prostate cancer model; assay type: in vivo, male CB17/Scid mice
# Protocol: Compound (I), enzalutamide, and abiraterone were tested in non-castrated VCap prostate cancer model in male CB17/Scid mice.
# All treatment groups reduced mean tumor volume.
# [2] = Group 2: Compound (I) 10 mg/kg PO, QD
# [3] = Group 3: Compound (I) 30 mg/kg PO, QD
# [4] = Group 4: Compound (I) 60 mg/kg PO, QD
# [5] = Group 5: Compound (I) 60 mg/kg PO, QOD
smiles,measurement,setting,value
"CC(C)N1CCOc2c(F)cc(-c3nc(Nc4ccc(C5CCN(C)CC5)cn4)ncc3F)cc21 [Compound (I), 5-fluoro-4-(8-fluoro-4-isopropyl-3,4-dihydro-2H-benzo[b][1,4]oxazin-6-yl)-N-(5-(1-methylpiperidin-4-yl)pyridin-2-yl)pyrimidin-2-amine]",Tumor volume (mean ± SEM),"U-118MG xenograft tumors; 10 mg/kg PO QD, day 0",154 ± 12 mm^3
same,Tumor volume (mean ± SEM),"U-118MG xenograft tumors; 10 mg/kg PO QD, day 3",238 ± 16 mm^3
same,Tumor volume (mean ± SEM),"U-118MG xenograft tumors; 10 mg/kg PO QD, day 7",277 ± 20 mm^3
same,Tumor volume (mean ± SEM),"U-118MG xenograft tumors; 10 mg/kg PO QD, day 10",291 ± 28 mm^3
same,Tumor volume (mean ± SEM),"U-118MG xenograft tumors; 10 mg/kg PO QD, day 14",275 ± 28 mm^3
same,Tumor volume (mean ± SEM),"U-118MG xenograft tumors; 10 mg/kg PO QD, day 17",281 ± 34 mm^3
same,Tumor volume (mean ± SEM),"U-118MG xenograft tumors; 10 mg/kg PO QD, day 21",269 ± 43 mm^3
same,Tumor volume (mean ± SEM),"U-118MG xenograft tumors; 10 mg/kg PO QD, day 24",270 ± 40 mm^3
same,Tumor volume (mean ± SEM),"U-118MG xenograft tumors; 10 mg/kg PO QD, day 28",273 ± 39 mm^3
same,Tumor volume (mean ± SEM),"U-118MG xenograft tumors; 30 mg/kg PO QD, day 0",155 ± 11 mm^3
same,Tumor volume (mean ± SEM),"U-118MG xenograft tumors; 30 mg/kg PO QD, day 3",237 ± 22 mm^3
same,Tumor volume (mean ± SEM),"U-118MG xenograft tumors; 30 mg/kg PO QD, day 7",273 ± 26 mm^3
same,Tumor volume (mean ± SEM),"U-118MG xenograft tumors; 30 mg/kg PO QD, day 10",241 ± 25 mm^3
same,Tumor volume (mean ± SEM),"U-118MG xenograft tumors; 30 mg/kg PO QD, day 14",230 ± 19 mm^3
same,Tumor volume (mean ± SEM),"U-118MG xenograft tumors; 30 mg/kg PO QD, day 17",214 ± 16 mm^3
same,Tumor volume (mean ± SEM),"U-118MG xenograft tumors; 30 mg/kg PO QD, day 21",193 ± 17 mm^3
same,Tumor volume (mean ± SEM),"U-118MG xenograft tumors; 30 mg/kg PO QD, day 24",174 ± 19 mm^3
same,Tumor volume (mean ± SEM),"U-118MG xenograft tumors; 30 mg/kg PO QD, day 28",172 ± 18 mm^3
same,Tumor volume (mean ± SEM),"U-118MG xenograft tumors; 60 mg/kg PO QD, day 0",156 ± 12 mm^3
same,Tumor volume (mean ± SEM),"U-118MG xenograft tumors; 60 mg/kg PO QD, day 3",220 ± 17 mm^3
same,Tumor volume (mean ± SEM),"U-118MG xenograft tumors; 60 mg/kg PO QD, day 7",264 ± 14 mm^3
same,Tumor volume (mean ± SEM),"U-118MG xenograft tumors; 60 mg/kg PO QD, day 10",227 ± 10 mm^3
same,Tumor volume (mean ± SEM),"U-118MG xenograft tumors; 60 mg/kg PO QD, day 14",202 ± 10 mm^3
same,Tumor volume (mean ± SEM),"U-118MG xenograft tumors; 60 mg/kg PO QD, day 17",174 ± 12 mm^3
same,Tumor volume (mean ± SEM),"U-118MG xenograft tumors; 60 mg/kg PO QD, day 21",160 ± 10 mm^3
same,Tumor volume (mean ± SEM),"U-118MG xenograft tumors; 60 mg/kg PO QD, day 24",156 ± 8 mm^3
same,Tumor volume (mean ± SEM),"U-118MG xenograft tumors; 60 mg/kg PO QD, day 28",156 ± 8 mm^3
same,Tumor volume (mean ± SEM),"U-118MG xenograft tumors; 60 mg/kg PO QOD, day 0",154 ± 11 mm^3
same,Tumor volume (mean ± SEM),"U-118MG xenograft tumors; 60 mg/kg PO QOD, day 3",233 ± 20 mm^3
same,Tumor volume (mean ± SEM),"U-118MG xenograft tumors; 60 mg/kg PO QOD, day 7",304 ± 27 mm^3
same,Tumor volume (mean ± SEM),"U-118MG xenograft tumors; 60 mg/kg PO QOD, day 10",273 ± 28 mm^3
same,Tumor volume (mean ± SEM),"U-118MG xenograft tumors; 60 mg/kg PO QOD, day 14",234 ± 22 mm^3
same,Tumor volume (mean ± SEM),"U-118MG xenograft tumors; 60 mg/kg PO QOD, day 17",215 ± 22 mm^3
same,Tumor volume (mean ± SEM),"U-118MG xenograft tumors; 60 mg/kg PO QOD, day 21",193 ± 20 mm^3
same,Tumor volume (mean ± SEM),"U-118MG xenograft tumors; 60 mg/kg PO QOD, day 24",183 ± 21 mm^3
same,Tumor volume (mean ± SEM),"U-118MG xenograft tumors; 60 mg/kg PO QOD, day 28",177 ± 22 mm^3
same,T/C,U-118MG xenograft tumors; [2],43.20%
same,TGI,U-118MG xenograft tumors; [2],75.08%
same,Tumor Size,U-118MG xenograft tumors; [2],273 ± 39 mm^3
same,T/C,U-118MG xenograft tumors; [3],27.32%
same,Tumor Size,U-118MG xenograft tumors; [3],172 ± 18 mm^3
same,T/C,U-118MG xenograft tumors; [4],24.64%
same,TGI,U-118MG xenograft tumors; [4],100.03%
same,Tumor Size,U-118MG xenograft tumors; [4],156 ± 8 mm^3
same,T/C,U-118MG xenograft tumors; [5],28.09%
same,TGI,U-118MG xenograft tumors; [5],95.14%
same,Tumor Size,U-118MG xenograft tumors; [5],177 ± 22 mm^3
same,Antitumor activity relative to the control group,"U-118MG xenograft tumors; mouse, in vivo",dose-dependent and statistically significant antitumor activity
same,Effect of 30 mg/kg QD compared with 60 mg/kg QOD,"U-118MG xenograft tumors; mouse, in vivo",similar
same,GI50,"A375; Homo sapiens, A-375, read-out: Absolute GI50",0.156 µM
same,Max (%),A375; inhibition rate,101.21%
same,Min (%),A375; inhibition rate,−0.12%
same,Antitumor activity over the course of the treatment,[1]; 30 mg/kg oral QD,statistically significant antitumor activity
same,Tumor regression,[1]; 30 mg/kg oral QD,tumor regression in all cases
same,Mice with 100% reduction in tumor volume,[1]; day 39 of treatment,one
same,Mice with >50% reduction in tumor volume,[1]; day 39 of treatment,3 of 10
same,Tumor volume (mean ± SEM),"VCap prostate cancer; Group 3: Compound (I) 10 mg/kg p.o. QD * 26 days, Day 0",171.8 ± 6 mm^3
same,Tumor volume (mean ± SEM),"VCap prostate cancer; Group 3: Compound (I) 10 mg/kg p.o. QD * 26 days, Day 4",221.9 ± 15.2 mm^3
same,Tumor volume (mean ± SEM),"VCap prostate cancer; Group 3: Compound (I) 10 mg/kg p.o. QD * 26 days, Day 7",260.9 ± 13.8 mm^3
same,Tumor volume (mean ± SEM),"VCap prostate cancer; Group 3: Compound (I) 10 mg/kg p.o. QD * 26 days, Day 11",310.5 ± 19.9 mm^3
same,Tumor volume (mean ± SEM),"VCap prostate cancer; Group 3: Compound (I) 10 mg/kg p.o. QD * 26 days, Day 14",381.2 ± 15.4 mm^3
same,Tumor volume (mean ± SEM),"VCap prostate cancer; Group 3: Compound (I) 10 mg/kg p.o. QD * 26 days, Day 18",420.6 ± 20.2 mm^3
same,Tumor volume (mean ± SEM),"VCap prostate cancer; Group 3: Compound (I) 10 mg/kg p.o. QD * 26 days, Day 21",514.2 ± 16.5 mm^3
same,Tumor volume (mean ± SEM),"VCap prostate cancer; Group 3: Compound (I) 10 mg/kg p.o. QD * 26 days, Day 25",596.9 ± 22.9 mm^3
same,Tumor volume (mean ± SEM),"VCap prostate cancer; Group 4: Compound (I) 30 mg/kg p.o. QD * 26 days, Day 0",171.7 ± 6.1 mm^3
same,Tumor volume (mean ± SEM),"VCap prostate cancer; Group 4: Compound (I) 30 mg/kg p.o. QD * 26 days, Day 4",218.9 ± 14.4 mm^3
same,Tumor volume (mean ± SEM),"VCap prostate cancer; Group 4: Compound (I) 30 mg/kg p.o. QD * 26 days, Day 7",233.4 ± 16.4 mm^3
same,Tumor volume (mean ± SEM),"VCap prostate cancer; Group 4: Compound (I) 30 mg/kg p.o. QD * 26 days, Day 11",253.7 ± 20.6 mm^3
same,Tumor volume (mean ± SEM),"VCap prostate cancer; Group 4: Compound (I) 30 mg/kg p.o. QD * 26 days, Day 14",279.1 ± 23.6 mm^3
same,Tumor volume (mean ± SEM),"VCap prostate cancer; Group 4: Compound (I) 30 mg/kg p.o. QD * 26 days, Day 18",259.2 ± 23.5 mm^3
same,Tumor volume (mean ± SEM),"VCap prostate cancer; Group 4: Compound (I) 30 mg/kg p.o. QD * 26 days, Day 21",235.9 ± 18.3 mm^3
same,Tumor volume (mean ± SEM),"VCap prostate cancer; Group 4: Compound (I) 30 mg/kg p.o. QD * 26 days, Day 25",232.9 ± 21.3 mm^3
same,Antitumor effect,"VCap prostate cancer; compound (I) 30 mg/kg PO QD, enzalutamide 20 mg/kg PO QD",greatest inhibition of tumor growth
